{"source": "patent US5006515A", "about": "“Pharmaceuticals, phosphorus-containing 2-isoxazolines and isoxazoles contained therein” (Hoechst Aktiengesellschaft, priority 1987, dated 1991)", "key": {"[1]": {"system": "peritoneal macrophages", "test": "Stimulation of the release of lysosomal enzymes from peritoneal macrophages (exocytosis)", "conditions": "single i.p. dose of 40 mg/kg; maximum activation by Example 34 = 100%"}, "[2]": {"system": "active Arthus reaction", "test": "Active Arthus reaction in the rat", "format": "in vivo, Sprague-Dawley rats", "conditions": "for change in vivo at 35 mg/kg: oral dose 35 mg/kg; for change in vivo at 50 mg/kg: oral dose 50 mg/kg", "protocol": "The experimental animals used were female and male Sprague-Dawley rats with a body weight between 80 and 100 g which received subcutaneous injections into the tail-head of 0.5 ml of an emulsion of pertussis vaccine and ovalbumin in liquid paraffin. After two weeks, the rats were divided into groups each of 8 animals. 24 hours and 1 hour before induction of the Arthus reaction by injection of 0.1 ml of a 0.4% strength ovalbumin solution into the right hind paw, the particular test substance or the pure vehicle (positive control) was administered orally, sodium chloride solution was injected into the left paw. One group of unsensitized animals (negative control group) was likewise treated with ovalbumin in order to be able to rule out nonspecific reactions to the protein. The parameter used for measuring the action of the product was the percentage change in the increase in paw volume compared with that in the control group which was sensitized but untreated (positive control) 4 hours after ovalbumin challenge, when the swelling had reached its maximum."}, "[3]": {"test": "Acute toxicity", "parameters": "species or system mice", "conditions": "mouse, in vivo, single dose, mortality within 7 days", "protocol": "The LD50 values were determined by the standard method via the mortality occurring within 7 days in NMRI (Naval Medical Research Institute) mice (6 animals per dose) after a single intraperitoneal (i.p.) or intravenous (i.v.) dose."}, "[4]": {"biological_target": "leucine aminopeptidase", "test": "Inhibition of leucine aminopeptidase", "format": "biochemical", "conditions": "substrate L-leucine 4-nitroanilide", "protocol": "The activity of the enzyme aminopeptidase B was determined photometrically using the substrate L-lysine 2-naphthylamide at room temperature. […] In the same way, the inhibition of leucine aminopeptidase was investigated using L-leucine 4-nitroanilide as enzyme substrate. The IC50 values are compiled in Table 6."}, "[5]": {"system": "DTH reaction to sheep erythrocytes", "test": "Delayed-type hypersensitivity (DTH) reaction to sheep erythrocytes", "format": "in vivo, female NMRI mice", "conditions": "single i.p. dose of 40 mg/kg; maximal stimulation by Example 34 = 100%", "protocol": "Groups each comprising 5 female NMRI mice with a body weight of 18 to 20 g were formed, and each animal was given 10^6 or 10^9 sheep red blood cells intravenously. Sheep erythrocytes are regarded in immunology as a standard antigen with which it is possible to check cellular and humoral immunoreactivity, especially the functioning of the T-cell-dependent component of the immune system, the so-called T-helper cells. The test substances were administered, in intraperitoneal doses of 5 to 100 mg/kg in physiological saline, at the same time as the antigen. After 5 days, each animal was given an injection of 2×10^8 sheep erythrocytes into the footpad. 24 hours later, the swelling of the foot was measured. The foot swelling is induced by a skin reaction of the delayed type (DTH reaction) and, as is known to those skilled in the art, is a measure of the cellular immune response (J. Immunol. 101 (1968), 830-845). The test results obtained with the product of Example 34, by way of example, are compiled in Table 7 and illustrate that the compounds of the formula I--administered prophylactically--are able to increase the cellular immune response after immunization with the antigen by stimulation of the T-cell system, with the stimulant action reaching its optimum in this experiment at a dose of 25 mg/kg."}, "[6]": {"conditions": "Rattus norvegicus, po, 4 h, 4 h after ovalbumin challenge, read-out: Active Arthus reaction % change"}, "[7]": {"conditions": "Rattus norvegicus, po, 4 h, 4 h after ovalbumin challenge"}, "[8]": {"conditions": "Rattus norvegicus, po, 4 h, read-out: Active Arthus reaction % change"}, "[9]": {"conditions": "Rattus norvegicus, po, 4 h, oral dose 100 mg/kg, 4 h after ovalbumin challenge, read-out: Active Arthus reaction % change"}}, "note": "Where two headings read alike, the source gives them in different places.", "data": [{"smiles": "COP(=O)(OC)C1CC(c2ccccc2)=NO1", "note": "(racemic) [Example 5, Dimethyl 3-phenyl-2-isoxazolin-5-ylphosphonate]", "values": [{"measurement": "Relative stimulation of macrophage activity: Exocytosis", "setting": "[1]", "value": 54, "unit": "%"}, {"measurement": "Active Arthus reaction % change", "setting": "[2]; oral dose 100 mg/kg, 4 h after ovalbumin challenge", "value": -20, "unit": "%"}, {"measurement": "LD50 at 168 h", "setting": "[3]; ip", "value": "300 to 600", "unit": "mg/kg"}]}, {"smiles": "CP(=O)(NCC(=O)OCc1ccccc1)C1CC(c2ccccc2)=NO1", "note": "(stereo not shown) [57/58, N-[3-Phenyl-2-isoxazolin-5-yl(P-methyl)phosphinoyl]glycine benzyl ester]", "values": [{"measurement": "change in vivo at 12 mg/kg", "setting": "[2]; Rattus norvegicus, po, 4 h, oral dose 12 mg/kg, 4 h after ovalbumin challenge", "value": 22, "unit": "%"}, {"measurement": "LD50 at 168 h", "setting": "[3]; iv", "value": "50 to 100", "unit": "mg/kg"}]}, {"smiles": "CCOP(=O)(OCC)C1CC(c2ccccc2)=NO1", "note": "(stereo not shown) [Example 1, Diethyl 3-phenyl-2-isoxazolin-5-ylphosphonate]", "values": [{"measurement": "Leucine aminopeptidase IC50", "setting": "[4]", "value": 65, "unit": "μug/ml"}]}, {"smiles": "CP(C)(=O)C1CC(c2ccccc2)=NO1", "note": "(stereo not shown) [Example 17, 3-Phenyl-2-isoxazolin-5-yldimethylphosphine oxide]", "values": [{"measurement": "change in vivo at 35 mg/kg", "setting": "[2]; [6]", "value": -34, "unit": "%"}, {"measurement": "LD50 at 168 h", "setting": "[3]; iv", "value": "> 200", "unit": "mg/kg"}]}, {"smiles": "CCOP(=O)(O)C1CC(c2ccccc2)=NO1", "note": "(stereo not shown) [Example 27, Monoethyl 3-phenyl-2-isoxazolin-5-ylphosphonate]", "values": [{"measurement": "Relative stimulation of the DTH reaction", "setting": "[5]", "value": 94, "unit": "%"}, {"measurement": "change in vivo at 70 mg/kg", "setting": "[2]; Rattus norvegicus, oral dose 70 mg/kg, 4 h after ovalbumin challenge, read-out: Active Arthus reaction % change", "value": 108, "unit": "%"}, {"measurement": "LD50 at 168 h", "setting": "[3]; iv", "value": "> 200", "unit": "mg/kg"}]}, {"smiles": "CCOP(=O)(O)C1CC(c2ccc(OC)cc2)=NO1", "note": "(stereo not shown) [Example 28, Monoethyl ammonium 3-(4-methoxyphenyl)-2-isoxazolin-5-ylphosphonate]", "values": [{"measurement": "change in vivo at 25 mg/kg", "setting": "[2]; Rattus norvegicus, oral dose 25 mg/kg, 4 h after ovalbumin challenge, read-out: Active Arthus reaction % change", "value": -12, "unit": "%"}, {"measurement": "LD50 at 168 h", "setting": "[3]; iv", "value": "> 200", "unit": "mg/kg"}]}, {"smiles": "Cc1ccc(C2=NOC(P(C)(=O)O)C2)cc1", "note": "(stereo not shown) [Example 30]", "values": [{"measurement": "Relative stimulation of the DTH reaction", "setting": "[5]", "value": 76, "unit": "%"}]}, {"smiles": "CP(=O)(O)C1CC(Cc2ccccc2)=NO1", "note": "(stereo not shown) [Example 31]", "values": [{"measurement": "change in vivo at 50 mg/kg", "setting": "[2]; [7]", "value": 66, "unit": "%"}, {"measurement": "LD50 at 168 h", "setting": "[3]; iv", "value": "> 200", "unit": "mg/kg"}]}, {"smiles": "CP(=O)(O)C1CC(c2cccc3ccccc23)=NO1", "note": "(stereo not shown) [Example 32]", "values": [{"measurement": "change in vivo at 50 mg/kg", "setting": "[2]; [7]", "value": 42, "unit": "%"}, {"measurement": "LD50 at 168 h", "setting": "[3]; ip", "value": "600 to 1200", "unit": "mg/kg"}]}, {"smiles": "CC(C)(C)C1=NOC(P(=O)(O)O)C1", "note": "(stereo not shown) [Example 33, 3-tert.butyl-2-isoxazolin-5-ylphosphonic acid]", "values": [{"measurement": "change in vivo at 100 mg/kg", "setting": "[2]; [8]", "value": -15, "unit": "%"}, {"measurement": "LD50 at 168 h", "setting": "[3]; iv", "value": "> 200", "unit": "mg/kg"}]}, {"smiles": "O=P(O)(O)CC1CC(c2ccccc2)=NO1", "note": "(stereo not shown) [Example 39]", "values": [{"measurement": "Relative stimulation of the DTH reaction", "setting": "[5]", "value": 136, "unit": "%"}, {"measurement": "change in vivo at 50 mg/kg", "setting": "[2]; [7]", "value": 24, "unit": "%"}, {"measurement": "LD50 at 168 h", "setting": "[3]; ip", "value": "600 to 1200", "unit": "mg/kg"}]}, {"smiles": "O=P(O)(O)C1CC(c2ccc(Cl)cc2)=NO1", "note": "(stereo not shown) [Example 40]", "values": [{"measurement": "change in vivo at 50 mg/kg", "setting": "[2]; [7]", "value": -23, "unit": "%"}, {"measurement": "LD50 at 168 h", "setting": "[3]; iv", "value": "> 200", "unit": "mg/kg"}]}, {"smiles": "O=P(O)(O)CC1CC(c2ccc(Cl)cc2)=NO1", "note": "(stereo not shown) [Example 41]", "values": [{"measurement": "change in vivo at 100 mg/kg", "setting": "[2]; [9]", "value": 26, "unit": "%"}, {"measurement": "LD50 at 168 h", "setting": "[3]; ip", "value": "150 to 300", "unit": "mg/kg"}]}, {"smiles": "O=P(O)(O)C1CC(c2ccccn2)=NO1", "note": "(stereo not shown) [Example 42]", "values": [{"measurement": "change in vivo at 35 mg/kg", "setting": "[2]; [6]", "value": -33, "unit": "%"}, {"measurement": "LD50 at 168 h", "setting": "[3]; iv", "value": "> 200", "unit": "mg/kg"}]}, {"smiles": "O=P(O)(O)C1CC(c2ccncc2)=NO1", "note": "(stereo not shown) [Example 43]", "values": [{"measurement": "change in vivo at 50 mg/kg", "setting": "[2]; [7]", "value": -14, "unit": "%"}, {"measurement": "LD50 at 168 h", "setting": "[3]; iv", "value": "> 200", "unit": "mg/kg"}]}, {"smiles": "O=P(O)(O)C1CC(c2cccc3ccccc23)=NO1", "note": "(stereo not shown) [Example 45]", "values": [{"measurement": "Leucine aminopeptidase IC50", "setting": "[4]", "value": 92, "unit": "μug/ml"}, {"measurement": "change in vivo at 50 mg/kg", "setting": "[2]; [7]", "value": -25, "unit": "%"}, {"measurement": "LD50 at 168 h", "setting": "[3]; ip", "value": "75 to 150", "unit": "mg/kg"}]}, {"smiles": "O=P(O)(O)c1cc(-c2ccccc2)no1", "note": "[Example 46]", "values": [{"measurement": "change in vivo at 50 mg/kg", "setting": "[2]; [7]", "value": -36, "unit": "%"}, {"measurement": "LD50 at 168 h", "setting": "[3]; iv", "value": "> 200", "unit": "mg/kg"}]}, {"smiles": "CCCC1=NOC(P(=O)(O)O)C1", "note": "(stereo not shown) [Example 47]", "values": [{"measurement": "Leucine aminopeptidase IC50", "setting": "[4]", "value": 35, "unit": "μug/ml"}, {"measurement": "change in vivo at 25 mg/kg", "setting": "[2]; [8]", "value": -35, "unit": "%"}, {"measurement": "LD50 at 168 h", "setting": "[3]; iv", "value": "> 200", "unit": "mg/kg"}]}, {"smiles": "COc1ccc(C2=NOC(P(=O)(O)O)C2)cc1", "note": "(stereo not shown) [Example 48]", "values": [{"measurement": "Leucine aminopeptidase IC50", "setting": "[4]", "value": 100, "unit": "μug/ml"}, {"measurement": "change in vivo at 100 mg/kg", "setting": "[2]; [9]", "value": 10, "unit": "%"}, {"measurement": "LD50 at 168 h", "setting": "[3]; ip", "value": "300 to 600", "unit": "mg/kg"}]}, {"smiles": "O=P(O)(O)C1CC(Cc2ccccc2)=NO1", "note": "(stereo not shown) [Example 49]", "values": [{"measurement": "change in vivo at 50 mg/kg", "setting": "[2]; [7]", "value": -59, "unit": "%"}, {"measurement": "LD50 at 168 h", "setting": "[3]; iv", "value": "> 200", "unit": "mg/kg"}]}, {"smiles": "O=P(O)(O)c1cc(-c2ccccn2)no1", "note": "[Example 50]", "values": [{"measurement": "change in vivo at 25 mg/kg", "setting": "[2]; Rattus norvegicus, po, 4 h, oral dose 25 mg/kg, 4 h after ovalbumin challenge, read-out: Active Arthus reaction % change", "value": -18, "unit": "%"}, {"measurement": "LD50 at 168 h", "setting": "[3]; iv", "value": "> 200", "unit": "mg/kg"}]}]}
